Assay results as given in the supplement of paper PMC11451515.

Tested on: NOMO1
Assay: cell viability relative to DMSO control; higher = less cytotoxic
Conditions: 48 h
Summary of the method: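 NOMO1 or SEM cells were plated at 500 cells/well and P12-Ichikawa cells at 1000 cells/well in 1536-well plates (5 μl), after each leukemia line had been adapted for at least four passages in each medium. Pin dosing delivered library compounds in DMSO at 11 threefold concentrations, 47 μM to 0.79 nM. CellTiter-Glo One luminescence was read after 48 h at 37°C. Viability is reported as a per-plate percentage of DMSO wells, with cell-free wells as background.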

[1] = HPLM + 10% dialyzed FBS, 0.000781 µM
[2] = HPLM + 10% dialyzed FBS, 0.00234 µM
[3] = HPLM + 10% dialyzed FBS, 0.00702 µM
[4] = HPLM + 10% dialyzed FBS, 0.0211 µM
[5] = HPLM + 10% dialyzed FBS, 0.0632 µM
[6] = HPLM + 10% dialyzed FBS, 0.19 µM
[7] = HPLM + 10% dialyzed FBS, 0.569 µM
[8] = HPLM + 10% dialyzed FBS, 1.71 µM
[9] = HPLM + 10% dialyzed FBS, 5.12 µM
[10] = HPLM + 10% dialyzed FBS, 15.4 µM
[11] = HPLM + 10% dialyzed FBS, 46.1 µM
[12] = RPMI 5 mM glucose + 10% FBS, 0.000781 µM
[13] = RPMI 5 mM glucose + 10% FBS, 0.00234 µM
[14] = RPMI 5 mM glucose + 10% FBS, 0.00702 µM
[15] = RPMI 5 mM glucose + 10% FBS, 0.0211 µM
[16] = RPMI 5 mM glucose + 10% FBS, 0.0632 µM
[17] = RPMI 5 mM glucose + 10% FBS, 0.19 µM
[18] = RPMI 5 mM glucose + 10% FBS, 0.569 µM
[19] = RPMI 5 mM glucose + 10% FBS, 1.71 µM
[20] = RPMI 5 mM glucose + 10% FBS, 5.12 µM
[21] = RPMI 5 mM glucose + 10% FBS, 15.4 µM
[22] = RPMI 5 mM glucose + 10% FBS, 46.1 µM
[23] = RPMI 5 mM glucose + 10% dialyzed FBS, 0.000781 µM
[24] = RPMI 5 mM glucose + 10% dialyzed FBS, 0.00234 µM
[25] = RPMI 5 mM glucose + 10% dialyzed FBS, 0.00702 µM
[26] = RPMI 5 mM glucose + 10% dialyzed FBS, 0.0211 µM
[27] = RPMI 5 mM glucose + 10% dialyzed FBS, 0.0632 µM
[28] = RPMI 5 mM glucose + 10% dialyzed FBS, 0.19 µM
[29] = RPMI 5 mM glucose + 10% dialyzed FBS, 0.569 µM
[30] = RPMI 5 mM glucose + 10% dialyzed FBS, 1.71 µM
[31] = RPMI 5 mM glucose + 10% dialyzed FBS, 5.12 µM
[32] = RPMI 5 mM glucose + 10% dialyzed FBS, 15.4 µM
[33] = RPMI 5 mM glucose + 10% dialyzed FBS, 46.1 µM

| Structure (SMILES) | cell viability [1] | cell viability [2] | cell viability [3] | cell viability [4] | cell viability [5] | cell viability [6] | cell viability [7] | cell viability [8] | cell viability [9] | cell viability [10] | cell viability [11] | cell viability [12] | cell viability [13] | cell viability [14] | cell viability [15] | cell viability [16] | cell viability [17] | cell viability [18] | cell viability [19] | cell viability [20] | cell viability [21] | cell viability [22] | cell viability [23] | cell viability [24] | cell viability [25] | cell viability [26] | cell viability [27] | cell viability [28] | cell viability [29] | cell viability [30] | cell viability [31] | cell viability [32] | cell viability [33] |
| --- | --- | --- | --- | --- | --- | --- | --- | --- | --- | --- | --- | --- | --- | --- | --- | --- | --- | --- | --- | --- | --- | --- | --- | --- | --- | --- | --- | --- | --- | --- | --- | --- | --- |
| COc1c(Cl)cc2c([nH]c3cnccc32)c1NC(=O)c1cccnc1C | 115% | 100% | 110% | 105% | 123% | 124% | 122% | 115% | 108% | 102% | 89.4% | 99.8% | 102% | 98.4% | 101% | 101% | 108% | 111% | 108% | 98.2% | 102% | 99% | 84% | 105% | 103% | 96.1% | 98.9% | 105% | 115% | 116% | 98.2% | 104% | 101% |
| CCOC(=O)c1c(C)n(C)c2ccc(O)cc12 |  |  |  |  |  |  |  |  |  |  |  |  |  |  |  |  |  |  |  |  |  |  | 115% | 120% | 115% | 113% | 125% | 119% | 124% | 120% | 108% | 101% | 96.6% |
| CCCCCCNC(=O)N1\C=C(F)/C(=O)NC1=O | 117% | 136% | 124% | 127% | 128% | 137% | 122% | 124% | 118% | 94.6% | 79.9% | 111% | 119% | 136% | 109% | 109% | 114% | 129% | 127% | 122% | 115% | 83.9% | 124% | 136% | 124% | 122% | 110% | 128% | 130% | 120% | 110% | 82.3% | 69.6% |
| Nc1n[nH]c2nnc(-c3c(-c4ccccc4)nn4ccccc34)cc12 | 103% | 139% | 118% | 131% | 134% | 137% | 137% | 86.3% | 40.5% | 37.4% | 37.3% | 116% | 114% | 144% | 124% | 138% | 123% | 133% | 59% | 24% | 26.9% | 20.8% | 116% | 123% | 134% | 129% | 136% | 129% | 138% | 119% | 29.1% | 28% | 21.4% |
| Cc1c(N)nc([C@H](CC(N)=O)NC[C@@H](N)C(N)=O)nc1C(=O)N[C@H](C(=O)N[C@@H](C)[C@H](O)[C@@H](C)C(=O)N[C@@H](C(=O)NCCc1nc(-c2nc(C(=O)NCCC[S+](C)C)cs2)cs1)[C@@H](C)O)C(O[C@H]1O[C@H](CO)[C@H](O)[C@@H](O)[C@H]1O[C@H]1O[C@H](CO)[C@@H](O)[C@H](OC(N)=O)[C@@H]1O)c1c[nH]cn1 (some centres not stated) | 117% | 112% | 128% | 125% | 121% | 128% | 108% | 74% | 40.4% | 57.9% | 85.9% | 101% | 100% | 95% | 98.6% | 110% | 115% | 114% | 71.9% | 41.1% | 72.2% | 79.6% | 119% | 117% | 114% | 132% | 113% | 124% | 138% | 127% | 66% | 85% | 86.7% |
| Cc1nc(-c2ccc(OCC(C)C)c(C#N)c2)sc1C(=O)O | 104% | 123% | 127% | 128% | 142% | 126% | 153% | 137% | 140% | 118% | 138% | 111% | 128% | 119% | 121% | 137% | 129% | 138% | 137% | 117% | 131% | 118% | 120% | 123% | 120% | 116% | 132% | 131% | 122% | 125% | 125% | 125% | 129% |
| Cc1ccc([C@@H]2O[C@H](CO)[C@@H](O)[C@H](O)[C@H]2O)cc1Cc1ccc(-c2ccc(F)cc2)s1 | 122% | 138% | 122% | 129% | 127% | 129% | 119% | 127% | 142% | 122% | 85.3% |  |  |  |  |  |  |  |  |  |  |  |  |  |  |  |  |  |  |  |  |  |  |
